{"source": "patent US20200147243A1", "about": "“LIGAND COMPOUND OF ALPHA7 NICOTINIC ACETYLCHOLINE RECEPTOR AND APPLICATION THEREOF” (BEIJING NORMAL UNIVERSITY, priority 2017, published 2020)", "key": {"[1]": {"test": "In vitro stability experiment in fetal bovine serum and normal saline", "type": "in vitro ADME", "experimental": "The in vitro stability of the radioligand is of great importance for its further in vivo studies. Generally, the in vitro stability study is carried out in normal saline and animal serum. A specific method was as follows: respectively incubating 10 μCi of HPLC-purified radioligand [^18F] II-15 and 100 μL of fetal bovine serum at 37° C. for 1 h and 2 h, adding 200 μL of acetonitrile thereto after finishing the incubation to fully precipitate proteins, then centrifuging at […] for 5 min (7000 rpm), collecting supernatant, filtering the supernatant with filter membrane, and then performing HPLC analysis on 100 μL of the filtered supernatant; incubating 10 μCi of HPLC-purified radioligand [^18F] II-15 with 100 μL of normal saline at room temperature for 1 h and 2 h, respectively, and then directly analyzing by HPLC."}, "[2]": {"test": "Rat PET imaging (micro-PET/CT)", "type": "in vivo", "details": "female CD-1 rats, images at 15, 30, 60 min", "experimental": "The radioligand [^18F] II-15 (0.3 mL, 200 μCi) was injected into bodies of female CD-1 rats (180-200 g) in a manner of tail vein injection, then the rats were anesthetized with 3% isoflurane to be coma, and the rats were fixed in a prone posture on a micro-PET/CT imaging instrument (Super Argus PET 4R L/CT 180) for small animals, maintaining the rats in an anesthetic state by employing 1% isoflurane in the scanning imaging process. Image acquisition was carried out respectively 15 min, 30 min and 60 min after the administration, to observe the distribution condition of [^18F] II-15 in the brains of the rats."}}}
{"smiles": "O=C1c2cc(N3CCN4CCC3CC4)ccc2-c2cccc([18F])c21", "note": "[[^18F] II-15]", "values": [{"measurement": "radiochemical purity after incubation", "setting": "[1]; fetal calf serum, 37° C., 1 h", "value": "greater than 98%"}, {"measurement": "radiochemical purity after incubation", "setting": "[1]; fetal calf serum, 37° C., 2 h", "value": "greater than 98%"}, {"measurement": "radiochemical purity after incubation", "setting": "[1]; normal saline, room temperature, 1 h", "value": "greater than 98%"}, {"measurement": "radiochemical purity after incubation", "setting": "[1]; normal saline, room temperature, 2 h", "value": "greater than 98%"}, {"measurement": "time of highest brain uptake in PET images", "setting": "[2]", "value": 15, "unit": "min"}]}
